# Data as given in the supplement of paper PMC10307832.
# Legend:
# Assay in all cases: relative viability (nuclei count vs DMSO), 5 days (fraction); higher = more cells survive
# NCI-H2347 = system: NCI-H2347
# Outline: (§1)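 Values are medians from duplicate plates. Each reflects relative viability, defined as the nuclei count of treated wells over that of vehicle wells. Lung cancer cell lines in 1536-well plates were pin-tool dosed one day after seeding with one drug alone or with a fixed anchor-drug dose plus five library-drug doses (not always all listed) in √10 steps, then fixed, stained and imaged at 4× after 5 days.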
# NCI-H460 = system: NCI-H460
# Outline: as §1
# A-427 = system: A-427
# Outline: as §1
# SW 1573 = system: SW 1573
# Outline: as §1
# NCI-H1563 = system: NCI-H1563
# Outline: as §1
# 201T = system: 201T
# Outline: as §1
# NCI-H1793 = system: NCI-H1793
# Outline: as §1
# HCC-44 = system: HCC-44
# Outline: as §1
# LU99A = system: LU99A
# Outline: as §1
# LC-2-ad = system: LC-2-ad
# Outline: as §1
# LK-2 = system: LK-2
# Outline: as §1
# LCLC-103H = system: LCLC-103H
# Outline: as §1
# NCI-H2228 = system: NCI-H2228
# Outline: as §1
# H3255 = system: H3255
# Outline: as §1
# LCLC-97TM1 = system: LCLC-97TM1
# Outline: as §1
# COR-L23 = system: COR-L23
# Outline: as §1
# NCI-H23 = system: NCI-H23
# Outline: as §1
# PC-14 = system: PC-14
# Outline: as §1
# NCI-H596 = system: NCI-H596
# Outline: as §1
# NCI-H727 = system: NCI-H727
# Outline: as §1
structure (smiles),measurement,setting,value
Nc1ccn([C@@H]2O[C@H](CO)[C@@H](O)[C@@H]2O)c(=O)n1 [Cytarabine] + Cc1nc(NC(=O)N2CCC[C@H]2C(N)=O)sc1-c1ccnc(C(C)(C)C(F)(F)F)c1 [Alpelisib] (partner 2 µM),relative viability,NCI-H2347; first compound 0.005 µM,1.22
same,relative viability,NCI-H2347; first compound 0.01581 µM,0.964
same,relative viability,NCI-H2347; first compound 0.05 µM,0.868
same,relative viability,NCI-H2347; first compound 0.1581 µM,0.691
same,relative viability,NCI-H2347; first compound 0.5 µM,0.663
same,relative viability,NCI-H460; first compound 0.005 µM,0.31
same,relative viability,NCI-H460; first compound 0.01581 µM,0.252
same,relative viability,NCI-H460; first compound 0.05 µM,0.121
same,relative viability,NCI-H460; first compound 0.1581 µM,0.0355
same,relative viability,NCI-H460; first compound 0.5 µM,0.0251
same,relative viability,A-427; first compound 0.005 µM,0.823
same,relative viability,A-427; first compound 0.01581 µM,0.518
same,relative viability,A-427; first compound 0.05 µM,0.226
same,relative viability,A-427; first compound 0.1581 µM,0.155
same,relative viability,A-427; first compound 0.5 µM,0.14
same,relative viability,SW 1573; first compound 0.005 µM,0.793
same,relative viability,SW 1573; first compound 0.01581 µM,0.602
same,relative viability,SW 1573; first compound 0.05 µM,0.7
same,relative viability,SW 1573; first compound 0.1581 µM,0.219
same,relative viability,SW 1573; first compound 0.5 µM,0.182
same,relative viability,NCI-H1563; first compound 0.005 µM,0.938
same,relative viability,NCI-H1563; first compound 0.01581 µM,1.02
same,relative viability,NCI-H1563; first compound 0.05 µM,0.845
same,relative viability,NCI-H1563; first compound 0.1581 µM,0.888
same,relative viability,NCI-H1563; first compound 0.5 µM,0.663
same,relative viability,201T; first compound 0.005 µM,0.999
same,relative viability,201T; first compound 0.01581 µM,0.983
same,relative viability,201T; first compound 0.05 µM,1.02
same,relative viability,201T; first compound 0.1581 µM,0.887
same,relative viability,201T; first compound 0.5 µM,0.872
same,relative viability,NCI-H1793; first compound 0.005 µM,0.573
same,relative viability,NCI-H1793; first compound 0.01581 µM,0.687
same,relative viability,NCI-H1793; first compound 0.05 µM,0.691
same,relative viability,NCI-H1793; first compound 0.1581 µM,0.389
same,relative viability,NCI-H1793; first compound 0.5 µM,0.251
same,relative viability,HCC-44; first compound 0.005 µM,0.806
same,relative viability,HCC-44; first compound 0.01581 µM,0.726
same,relative viability,HCC-44; first compound 0.05 µM,0.586
same,relative viability,HCC-44; first compound 0.1581 µM,0.429
same,relative viability,HCC-44; first compound 0.5 µM,0.517
same,relative viability,LU99A; first compound 0.005 µM,0.519
same,relative viability,LU99A; first compound 0.01581 µM,0.565
same,relative viability,LU99A; first compound 0.05 µM,0.51
same,relative viability,LU99A; first compound 0.1581 µM,0.5
same,relative viability,LU99A; first compound 0.5 µM,0.406
same,relative viability,LC-2-ad; first compound 0.005 µM,0.898
same,relative viability,LC-2-ad; first compound 0.01581 µM,0.785
same,relative viability,LC-2-ad; first compound 0.05 µM,0.802
same,relative viability,LC-2-ad; first compound 0.1581 µM,0.441
same,relative viability,LC-2-ad; first compound 0.5 µM,0.228
same,relative viability,LK-2; first compound 0.005 µM,0.641
same,relative viability,LK-2; first compound 0.01581 µM,0.716
same,relative viability,LK-2; first compound 0.05 µM,0.381
same,relative viability,LK-2; first compound 0.1581 µM,0.276
same,relative viability,LK-2; first compound 0.5 µM,0.245
same,relative viability,LCLC-103H; first compound 0.005 µM,0.988
same,relative viability,LCLC-103H; first compound 0.01581 µM,0.906
same,relative viability,LCLC-103H; first compound 0.05 µM,1.02
same,relative viability,LCLC-103H; first compound 0.1581 µM,0.967
same,relative viability,LCLC-103H; first compound 0.5 µM,0.809
same,relative viability,NCI-H2228; first compound 0.005 µM,0.403
same,relative viability,NCI-H2228; first compound 0.01581 µM,0.201
same,relative viability,NCI-H2228; first compound 0.05 µM,0.251
same,relative viability,NCI-H2228; first compound 0.1581 µM,0.207
same,relative viability,NCI-H2228; first compound 0.5 µM,0.164
same,relative viability,H3255; first compound 0.005 µM,0.757
same,relative viability,H3255; first compound 0.01581 µM,0.673
same,relative viability,H3255; first compound 0.05 µM,0.566
same,relative viability,H3255; first compound 0.1581 µM,0.524
same,relative viability,H3255; first compound 0.5 µM,0.469
same,relative viability,LCLC-97TM1; first compound 0.005 µM,0.235
same,relative viability,LCLC-97TM1; first compound 0.01581 µM,0.124
same,relative viability,LCLC-97TM1; first compound 0.1581 µM,0.101
same,relative viability,LCLC-97TM1; first compound 0.5 µM,0.0953
same,relative viability,COR-L23; first compound 0.005 µM,0.63
same,relative viability,COR-L23; first compound 0.01581 µM,0.472
same,relative viability,COR-L23; first compound 0.05 µM,0.458
same,relative viability,COR-L23; first compound 0.1581 µM,0.176
same,relative viability,COR-L23; first compound 0.5 µM,0.104
same,relative viability,NCI-H23; first compound 0.005 µM,0.575
same,relative viability,NCI-H23; first compound 0.01581 µM,0.547
same,relative viability,NCI-H23; first compound 0.05 µM,0.373
same,relative viability,NCI-H23; first compound 0.1581 µM,0.195
same,relative viability,NCI-H23; first compound 0.5 µM,0.127
same,relative viability,PC-14; first compound 0.005 µM,0.838
same,relative viability,PC-14; first compound 0.01581 µM,1.13
same,relative viability,PC-14; first compound 0.05 µM,1.05
same,relative viability,PC-14; first compound 0.1581 µM,0.512
same,relative viability,PC-14; first compound 0.5 µM,0.357
same,relative viability,NCI-H596; first compound 0.005 µM,0.5
same,relative viability,NCI-H596; first compound 0.01581 µM,0.567
same,relative viability,NCI-H596; first compound 0.05 µM,0.433
same,relative viability,NCI-H596; first compound 0.1581 µM,0.418
same,relative viability,NCI-H596; first compound 0.5 µM,0.315
same,relative viability,NCI-H727; first compound 0.005 µM,0.461
same,relative viability,NCI-H727; first compound 0.01581 µM,0.505
same,relative viability,NCI-H727; first compound 0.05 µM,0.388
same,relative viability,NCI-H727; first compound 0.1581 µM,0.258
same,relative viability,NCI-H727; first compound 0.5 µM,0.159
